From ChEMBL document CHEMBL1201862, “PubChem BioAssay data set” (2004)
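These data come from cells grown in 96-well plates and exposed to compound for 48 hours at five concentrations. The concentration for 50% growth inhibition is given as GI50.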 Active and inactive are the calls of the source. No stated cut-off is given here; in the data, active = GI50 up to about 1.1 µM and inactive = higher.

What was measured:
Assay in all cases: NCI-60 cell line screen, 48 h
[1] = tested on: HL-60
[2] = tested on: RXF 393
[3] = tested on: SK-OV-3
[4] = tested on: SNB-75
[5] = tested on: MCF7
[6] = tested on: RPMI-8226
[7] = tested on: 786-0
[8] = tested on: HT-29
[9] = tested on: Malme-3M
[10] = tested on: OVCAR-4
[11] = tested on: A498
[12] = tested on: COLO 205
[13] = tested on: NCI-H226
[14] = tested on: OVCAR-3
[15] = tested on: SR
[16] = tested on: HOP-92
[17] = tested on: MDA-MB-435
[18] = tested on: HCT-15
[19] = tested on: T47D
[20] = tested on: TK-10

Structure (SMILES) | GI50 [1] | GI50 [2] | GI50 [3] | GI50 [4] | GI50 [5] | GI50 [6] | GI50 [7] | GI50 [8] | GI50 [9] | GI50 [10] | GI50 [11] | GI50 [12] | GI50 [13] | GI50 [14] | GI50 [15] | GI50 [16] | GI50 [17] | GI50 [18] [µM] | GI50 [19] | GI50 [20]
O=C(/C=C/c1ccccc1)CCC1C(=O)c2ccccc2C1=O | > 100 µM (inactive) | > 100 µM (inactive) | > 100 µM (inactive) | 19.7 µM (inactive) | > 100 µM (inactive) | 73.6 µM (inactive) | > 100 µM (inactive) | > 100 µM (inactive) | > 100 µM (inactive) | 31.3 µM (inactive) | > 100 µM (inactive) | 64.9 µM (inactive) | > 100 µM (inactive) | > 100 µM (inactive) | 66.2 µM (inactive) | > 100 µM (inactive) | > 100 µM (inactive) | 42.6 | > 100 µM (inactive) | 
Clc1ccc(-c2cc(-c3cc4cc(Br)ccc4nc3Cl)on2)cc1 | 1.7 µM (inactive) | 15.4 µM (inactive) | 18.9 µM (inactive) | 25.1 µM (inactive) | 13.1 µM (inactive) | 15.4 µM (inactive) | 18.9 µM (inactive) | 17.5 µM (inactive) | 18.8 µM (inactive) | 16.2 µM (inactive) | 11.7 µM (inactive) | 8.28 µM (inactive) | 13.3 µM (inactive) | 10 µM (inactive) | 10.4 µM (inactive) | 27.9 µM (inactive) | 11 µM (inactive) | 16.2 | 15 µM (inactive) | 
CN(C)CC1COC2Cc3ccccc3C1O2 (stereo not given) | 72.6 µM (inactive) | > 100 µM (inactive) | > 100 µM (inactive) |  | > 100 µM (inactive) | > 100 µM (inactive) | > 100 µM (inactive) | > 100 µM (inactive) | > 100 µM (inactive) | > 100 µM (inactive) | > 100 µM (inactive) | > 100 µM (inactive) | > 100 µM (inactive) | > 100 µM (inactive) | > 100 µM (inactive) | > 100 µM (inactive) | > 100 µM (inactive) | > 100 | > 100 µM (inactive) | > 100 µM (inactive)
CC1(C)OC(=O)N(c2ccccc2)C12C=Cc1cc([N+](=O)[O-])cc([N+](=O)[O-])c1O2 (stereo not given) | 61.9 µM (inactive) | > 100 µM (inactive) | > 100 µM (inactive) | 66.5 µM (inactive) | > 100 µM (inactive) | > 100 µM (inactive) | > 100 µM (inactive) | > 100 µM (inactive) |  | 92 µM (inactive) | 81.3 µM (inactive) | > 100 µM (inactive) | > 100 µM (inactive) | 97.7 µM (inactive) | > 100 µM (inactive) | 12.4 µM (inactive) | 83.9 µM (inactive) | > 100 | > 100 µM (inactive) | > 100 µM (inactive)
O=C1C[C@@H](Sc2ccccc2)C2(OCCO2)[C@H]2ON3CCC[C@@H]3[C@@H]12 | 1.38 µM (inactive) |  | 13.2 µM (inactive) |  | 3.33 µM (inactive) | 2.85 µM (inactive) | 2.07 µM (inactive) | 1.17 µM (inactive) | 1.82 µM (inactive) | 5 µM (inactive) | 10.9 µM (inactive) | 2.48 µM (inactive) | 7.67 µM (inactive) | 1.68 µM (inactive) | 1.3 µM (inactive) | 3.89 µM (inactive) | 2.58 µM (inactive) | 2.44 | 2.83 µM (inactive) | 6.71 µM (inactive)
Cc1ccc2c(c1)SSSSS2 | 20 µM (inactive) | 21.1 µM (inactive) | 21.9 µM (inactive) | 23.8 µM (inactive) | 18.6 µM (inactive) |  | 15.8 µM (inactive) | 28.1 µM (inactive) | 17.7 µM (inactive) | 18.3 µM (inactive) | 18.9 µM (inactive) | 29.4 µM (inactive) |  | 21.8 µM (inactive) | 40.3 µM (inactive) | 18.5 µM (inactive) | 21 µM (inactive) | 14.1 | 12.6 µM (inactive) | 20 µM (inactive)
COC(=O)c1ccccc1/C=C1\Cc2ccc3ccccc3c2C1C (stereo not given) | 24.1 µM (inactive) | 39.2 µM (inactive) |  | 72.4 µM (inactive) | 50.4 µM (inactive) | 37 µM (inactive) | 81.5 µM (inactive) |  | 53.7 µM (inactive) | 45.6 µM (inactive) | > 100 µM (inactive) | 60.1 µM (inactive) | > 100 µM (inactive) | 25.6 µM (inactive) | 32.7 µM (inactive) | 67.9 µM (inactive) | 45.7 µM (inactive) | 58.5 | 17.4 µM (inactive) | > 100 µM (inactive)
